Species: Rattus norvegicus
Assay: DrugMatrix - Regimen: Daily Repeat
Assay type: toxicity, organism-based, Sprague-Dawley
Set-up: regimen Daily Repeat, gender Male, age 6-8 weeks
Details: in vivo, ip, 0 mg/kg, route intraperitoneal, dose level Control, vehicle 100 % SALINE; for ABSOLUTE BASOPHIL / ABSOLUTE EOSINOPHIL / ABSOLUTE LYMPHOCYTE / ABSOLUTE MONOCYTE / ABSOLUTE SEGMENTED NEUTROPHIL / BASOPHIL / EOSINOPHIL / ERYTHROCYTE COUNT / HEMATOCRIT / HEMOGLOBIN / LEUKOCYTE COUNT / LYMPHOCYTE / MEAN CORPUSCULAR HEMOGLOBIN / MEAN CORPUSCULAR HEMOGLOBIN CONCENTRATION / MEAN CORPUSCULAR VOLUME / MONOCYTE / NEUTROPHIL / PLATELET COUNT: tissue Blood
[1] = 120 h, tissue Plasma, time 5 day
[2] = […], tissue Plasma, time 14 day
[3] = […], tissue Plasma, time 28 day

Sequence: CARBOPLATIN
- ABSOLUTE BASOPHIL (120 h, time 5 day): 32 cells/µL
- ABSOLUTE EOSINOPHIL (120 h, time 5 day): 110 cells/µL
- ABSOLUTE LYMPHOCYTE (120 h, time 5 day): 6630 cells/µL
- ABSOLUTE MONOCYTE (120 h, time 5 day): 140 cells/µL
- ABSOLUTE SEGMENTED NEUTROPHIL (120 h, time 5 day): 1170 cells/µL
- BASOPHIL (120 h, time 5 day): 0.38%
- EOSINOPHIL (120 h, time 5 day): 1.28%
- ERYTHROCYTE COUNT (120 h, time 5 day): 7.45 x10E6/uL
- HEMATOCRIT (120 h, time 5 day): 45.74%
- HEMOGLOBIN (120 h, time 5 day): 14.72 G/DL
- LEUKOCYTE COUNT (120 h, time 5 day): 8.11 x10E3/uL
- LYMPHOCYTE (120 h, time 5 day): 81.3%
- MEAN CORPUSCULAR HEMOGLOBIN (120 h, time 5 day): 19.76 pg
- MEAN CORPUSCULAR HEMOGLOBIN CONCENTRATION (120 h, time 5 day): 32.16 G/DL
- MEAN CORPUSCULAR VOLUME (120 h, time 5 day): 61.38 fL
- MONOCYTE (120 h, time 5 day): 1.76%
- NEUTROPHIL (120 h, time 5 day): 14.9%
- PLATELET COUNT (120 h, time 5 day): 1322.4 x10E3/uL
- ALANINE AMINOTRANSFERASE [1]: 25.8 u/L
- ALBUMIN [1]: 3.64 G/DL
- ASPARTATE AMINOTRANSFERASE [1]: 81.4 u/L
- BLOOD UREA NITROGEN [1]: 14.4 mg/dL
- CHOLESTEROL [1]: 69.2 mg/dL
- CREATINE PHOSPHOKINASE [1]: 303.2 u/L
- CREATININE [1]: 0.56 mg/dL
- GLUCOSE [1]: 125.4 mg/dL
- LACTATE DEHYDROGENASE [1]: 105.4 u/L
- LIPASE [1]: 22.4 u/L
- POTASSIUM [1]: 5.52 MEQ/L
- SODIUM [1]: 147 MEQ/L
- TOTAL BILIRUBIN [1]: 0.2 mg/dL
- TOTAL PROTEIN [1]: 6.1 G/DL
- URIC ACID [1]: 1.06 mg/dL
- ABSOLUTE BASOPHIL ([…], time 14 day): 130 cells/µL
- ABSOLUTE EOSINOPHIL ([…], time 14 day): 140 cells/µL
- ABSOLUTE LYMPHOCYTE ([…], time 14 day): 13500 cells/µL
- ABSOLUTE MONOCYTE ([…], time 14 day): 400 cells/µL
- ABSOLUTE SEGMENTED NEUTROPHIL ([…], time 14 day): 2330 cells/µL
- BASOPHIL ([…], time 14 day): 0.72%
- EOSINOPHIL ([…], time 14 day): 0.86%
- ERYTHROCYTE COUNT ([…], time 14 day): 7.74 x10E6/uL
- HEMATOCRIT ([…], time 14 day): 45.98%
- LEUKOCYTE COUNT ([…], time 14 day): 16.61 x10E3/uL
- LYMPHOCYTE ([…], time 14 day): 81.34%
- MEAN CORPUSCULAR HEMOGLOBIN ([…], time 14 day): 18 pg
- MEAN CORPUSCULAR HEMOGLOBIN CONCENTRATION ([…], time 14 day): 30.22 G/DL
- MEAN CORPUSCULAR VOLUME ([…], time 14 day): 59.4 fL
- MONOCYTE ([…], time 14 day): 2.46%
- NEUTROPHIL ([…], time 14 day): 14.14%
- PLATELET COUNT ([…], time 14 day): 1445.5 x10E3/uL
- ABSOLUTE BASOPHIL ([…], time 28 day): 91 cells/µL
- ABSOLUTE EOSINOPHIL ([…], time 28 day): 110 cells/µL
- ABSOLUTE LYMPHOCYTE ([…], time 28 day): 9910 cells/µL
- ABSOLUTE MONOCYTE ([…], time 28 day): 210 cells/µL
- ABSOLUTE SEGMENTED NEUTROPHIL ([…], time 28 day): 1560 cells/µL
- BASOPHIL ([…], time 28 day): 0.77%
- EOSINOPHIL ([…], time 28 day): 0.92%
- ERYTHROCYTE COUNT ([…], time 28 day): 8.21 x10E6/uL
- HEMATOCRIT ([…], time 28 day): 47.53%
- HEMOGLOBIN ([…], time 28 day): 15.65 G/DL
- LEUKOCYTE COUNT ([…], time 28 day): 11.91 x10E3/uL
- LYMPHOCYTE ([…], time 28 day): 83.34%
- MEAN CORPUSCULAR HEMOGLOBIN ([…], time 28 day): 19.07 pg
- MEAN CORPUSCULAR HEMOGLOBIN CONCENTRATION ([…], time 28 day): 32.93 G/DL
- MEAN CORPUSCULAR VOLUME ([…], time 28 day): 57.9 fL
- MONOCYTE ([…], time 28 day): 1.68%
- NEUTROPHIL ([…], time 28 day): 12.97%
- PLATELET COUNT ([…], time 28 day): 1323.8 x10E3/uL
- ALANINE AMINOTRANSFERASE [2]: 31.6 u/L
- ALBUMIN [2]: 3.66 G/DL
- ALKALINE PHOSPHATASE [2]: 228.6 u/L
- ASPARTATE AMINOTRANSFERASE [2]: 79.6 u/L
- BLOOD UREA NITROGEN [2]: 11.2 mg/dL
- CHLORIDE [2]: 107 MEQ/L
- CHOLESTEROL [2]: 57 mg/dL
- CREATININE [2]: 0.5 mg/dL
- GLUCOSE [2]: 124.4 mg/dL
- LACTATE DEHYDROGENASE [2]: 106.4 u/L
- LIPASE [2]: 24.4 u/L
- PHOSPHORUS [2]: 10.52 mg/dL
- POTASSIUM [2]: 6.34 MEQ/L
- SODIUM [2]: 149.2 MEQ/L
- TOTAL BILIRUBIN [2]: 0.2 mg/dL
- TOTAL PROTEIN [2]: 6.48 G/DL
- URIC ACID [2]: 0.94 mg/dL
- ALANINE AMINOTRANSFERASE [3]: 30 u/L
- ALBUMIN [3]: 3.71 G/DL
- ALKALINE PHOSPHATASE [3]: 186.8 u/L
- ASPARTATE AMINOTRANSFERASE [3]: 78.2 u/L
- BLOOD UREA NITROGEN [3]: 14.2 mg/dL
- CHOLESTEROL [3]: 44.9 mg/dL
- CREATINE PHOSPHOKINASE [3]: 334.3 u/L
- CREATININE [3]: 0.6 mg/dL
- GLUCOSE [3]: 147.2 mg/dL
- LACTATE DEHYDROGENASE [3]: 123.1 u/L
- LIPASE [3]: 9.6 u/L
- PHOSPHORUS [3]: 10.01 mg/dL
- POTASSIUM [3]: 6.57 MEQ/L
- SODIUM [3]: 149.5 MEQ/L
- TOTAL BILIRUBIN [3]: 0.21 mg/dL
- TOTAL PROTEIN [3]: 6.66 G/DL

Reference: ChEMBL document CHEMBL3885881, “DrugMatrix”
